Measurements published in ChEMBL document CHEMBL1126769, “Synthesis and kappa-opioid antagonist selectivity of a norbinaltorphimine congener. Identification of the address moiety required for kappa-antagonist activity” (J Med Chem, 1993).

Assays:
[1] = molecular target: Opioid receptors; mu & kappa (Homo sapiens) (UniProt P41145+P35372); assay: Selectivity ratio between kappa-opioid receptor to mu-opioid receptor; assay type: protein assay
[2] = molecular target: Opioid receptors; delta & kappa (Homo sapiens) (UniProt P41145+P41143); assay: Selectivity ratio between kappa-opioid receptor to delta-opioid receptor; assay type: protein assay
Opioid receptors; delta & kappa (Homo sapiens), sequence (P41143 whole entry, looked up): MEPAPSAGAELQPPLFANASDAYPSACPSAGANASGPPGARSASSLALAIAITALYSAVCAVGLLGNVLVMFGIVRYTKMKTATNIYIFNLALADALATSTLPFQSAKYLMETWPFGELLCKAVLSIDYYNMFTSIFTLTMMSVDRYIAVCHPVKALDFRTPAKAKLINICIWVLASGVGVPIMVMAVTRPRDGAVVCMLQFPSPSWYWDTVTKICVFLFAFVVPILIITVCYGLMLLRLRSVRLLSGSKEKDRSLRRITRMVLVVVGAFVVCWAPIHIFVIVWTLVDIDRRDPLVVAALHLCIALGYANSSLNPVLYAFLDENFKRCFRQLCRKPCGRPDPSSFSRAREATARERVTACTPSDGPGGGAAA
Opioid receptors; delta & kappa (Homo sapiens), sequence (P41145 whole entry, looked up): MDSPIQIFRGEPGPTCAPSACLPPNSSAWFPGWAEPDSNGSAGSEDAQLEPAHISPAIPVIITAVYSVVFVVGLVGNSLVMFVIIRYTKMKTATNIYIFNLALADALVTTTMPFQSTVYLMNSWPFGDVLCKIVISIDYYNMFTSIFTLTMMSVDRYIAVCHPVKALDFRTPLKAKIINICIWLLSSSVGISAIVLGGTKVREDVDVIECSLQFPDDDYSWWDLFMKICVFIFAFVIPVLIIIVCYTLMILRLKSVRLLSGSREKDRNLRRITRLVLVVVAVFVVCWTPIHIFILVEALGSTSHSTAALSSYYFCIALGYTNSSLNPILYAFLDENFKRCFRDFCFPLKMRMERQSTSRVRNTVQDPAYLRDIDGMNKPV

[3] = molecular target: Kappa-type opioid receptor (Cavia porcellus, UniProt P41144); assay: Inhibitory activity against kappa-opioid receptor in guinea pig ileum longitudinal muscle using ethylketazocine; assay type: tissue-based
Kappa-type opioid receptor, sequence (P41144 whole entry): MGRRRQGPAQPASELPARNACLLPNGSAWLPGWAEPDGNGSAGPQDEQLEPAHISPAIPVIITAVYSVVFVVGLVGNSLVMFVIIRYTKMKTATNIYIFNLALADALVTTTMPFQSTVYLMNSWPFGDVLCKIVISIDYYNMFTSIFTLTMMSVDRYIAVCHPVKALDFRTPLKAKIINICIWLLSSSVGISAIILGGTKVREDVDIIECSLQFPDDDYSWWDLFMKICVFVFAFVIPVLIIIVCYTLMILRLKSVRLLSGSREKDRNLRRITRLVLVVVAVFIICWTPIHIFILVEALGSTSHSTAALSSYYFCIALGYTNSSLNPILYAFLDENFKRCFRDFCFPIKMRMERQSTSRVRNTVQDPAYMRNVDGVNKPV

[4] = molecular target: Mu-type opioid receptor (Cavia porcellus, UniProt P97266); assay: Inhibitory activity against mu-opioid receptor in guinea pig ileum longitudinal muscle using morphine; assay type: tissue-based
Mu-type opioid receptor, sequence (P97266 whole entry): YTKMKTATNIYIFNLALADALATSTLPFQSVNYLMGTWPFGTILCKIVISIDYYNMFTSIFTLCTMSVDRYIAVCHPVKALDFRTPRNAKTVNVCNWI

[5] = molecular target: Delta-type opioid receptor (Mus musculus, UniProt P32300); assay: Inhibitory activity against delta-opioid receptor in mouse vas deferens preparation using DADLE
Delta-type opioid receptor, sequence (P32300 whole entry): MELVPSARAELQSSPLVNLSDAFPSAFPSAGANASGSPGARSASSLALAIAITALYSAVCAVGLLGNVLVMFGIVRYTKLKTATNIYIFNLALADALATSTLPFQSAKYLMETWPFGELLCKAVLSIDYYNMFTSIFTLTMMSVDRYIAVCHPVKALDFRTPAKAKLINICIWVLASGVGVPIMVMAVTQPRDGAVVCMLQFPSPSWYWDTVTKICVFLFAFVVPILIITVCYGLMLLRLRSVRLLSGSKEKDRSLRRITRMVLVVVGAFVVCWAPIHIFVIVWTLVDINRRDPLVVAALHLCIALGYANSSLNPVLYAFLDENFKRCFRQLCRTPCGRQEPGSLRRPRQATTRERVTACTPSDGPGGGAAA

Opioid receptors; mu & kappa (Homo sapiens), sequence (P35372 whole entry, looked up): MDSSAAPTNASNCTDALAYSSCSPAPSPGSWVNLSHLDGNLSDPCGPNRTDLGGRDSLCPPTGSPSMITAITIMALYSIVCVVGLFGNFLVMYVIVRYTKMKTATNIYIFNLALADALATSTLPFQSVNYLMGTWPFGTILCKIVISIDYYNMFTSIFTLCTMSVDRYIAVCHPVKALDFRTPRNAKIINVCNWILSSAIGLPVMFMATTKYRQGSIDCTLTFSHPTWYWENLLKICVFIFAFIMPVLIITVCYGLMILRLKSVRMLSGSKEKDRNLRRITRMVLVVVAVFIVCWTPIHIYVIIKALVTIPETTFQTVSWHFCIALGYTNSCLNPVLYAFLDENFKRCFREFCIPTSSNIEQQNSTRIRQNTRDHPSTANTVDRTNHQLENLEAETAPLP
Opioid receptors; mu & kappa (Homo sapiens), sequence (P41145 whole entry, looked up): as the sequence (P41145 whole entry, looked up) above

Oc1ccc2c3c1O[C@H]1c4[nH]c5c(c4C[C@@]4(O)[C@@H](C2)N(CC2CC2)CC[C@]314)C[C@@]1(O)[C@H]2Cc3ccc(O)c4c3[C@@]1(CCN2CC1CC1)[C@H]5O4 [NORBINALTORPHIMINE]
Ratio [1]: 22
Ratio [2]: 17
IC50 [3]: 181 nM
IC50 [4]: 8.3 nM

Cn1c2c(c3c1[C@@H]1Oc4c(O)ccc5c4[C@@]14CCN(CC1CC1)[C@H](C5)[C@]4(O)C3)C[C@H]1CN(C(=O)OCc3ccccc3)CC[C@@H]1C2
Ratio [1]: 0.9
Ratio [2]: 0.2
IC50 [3]: 1.6 nM
IC50 [4]: 1.7 nM
IC50 [5]: 9.2 nM

Cn1c2c(c3c1[C@@H]1Oc4c(O)ccc5c4[C@@]14CCN(CC1CC1)[C@H](C5)[C@]4(O)C3)C[C@H]1CNCC[C@@H]1C2
Ratio [1]: 40
Ratio [2]: 36
IC50 [3]: 40 nM
IC50 [4]: 1 nM
IC50 [5]: 1.1 nM
